Data set [1] has as its target soluble, sperm-specific adenylate cyclase (sAC) (Homo sapiens, UniProt Q96PN6). Put plainly: sAC assay (HTRF cAMP detection). The format is biochemical. As to conditions: read-out: IC50 (inhibition of soluble adenylate cyclase). The source says:
In a suitable buffer system, soluble, sperm-specific adenylate cyclase catalyzes the conversion of adenosine triphosphate (ATP) to cyclic adenosine monophosphate (cAMP) and pyrophosphate. Free cAMP generated in this way is then used in a competitive detection technique, in which the binding of a europium cryptate Eu[K]-labeled anti-cAMP antibody (anti-cAMP-Eu[K]-AB) to a modified allophycocyanine-1 molecule labeled with cAMP molecules (cAMP-XL665) is prevented. In the absence of exogenous cAMP, after excitation at 335 nm there is Fluorescence Resonance Energy Transfer (FRET) between the anti-cAMP-Eu[K]-AB (FRET donor) and the cAMP-XL665 molecule (FRET acceptor). This process is quantified, time-resolved, on the basis of the emission of the FRET acceptor XL665 (665 nm and 620 nm). A decrease in signal (measured as Well Ratio; calculated from the Formula: [(E665 nm/E620 nm)×10000]) can be attributed to the presence of cAMP and thus to the activity of sAC. First, 1.5 μl of the test substance (in 30% DMSO) is placed in each well of a 384-well test plate (polystyrene; 384, NV), and in the solvent controls only 30% DMSO. Then 10 μl of a dilute sAC enzyme solution is applied (enzyme stock solution in 300 mM NaCl, 10% glycerol; pH 7.6; enzyme intermediate and final dilution a) 1:10 and b) 1:2000 in each case in: 1.0 mM MnCl2; 0.2% BSA; 50 mM Tris pH 7.5 in H2O). The enzyme reaction is started by adding 5 μl of the ATP substrate solution (200 μM ATP in H2O) and after incubation (25 min at room temperature) stopped by adding 5 μl of the stop solution (200 μM EDTA in PBS). Finally the whole reaction is adjusted to a total volume of 91.5 μl by adding 70 μl PBS.
Next, 8 μl of detection solution 1 is placed in a well of the 384-well measuring plate (measuring plate: polystyrene; 384, SV—black; detection solution 1: 50 μl cAMP-XL665; 950 μl reconstituted buffer; 2200 μl PBS; cAMP-XL665: prepared by adding 5 ml H2O to the lyophilized product according to the instructions in Cis bio Kit: #62AMPPEC; storage: in aliquots at −80° C.). Next, 3 μl from the 91.5 μl is added to the corresponding well of the test plate. Finally, 8 μl of detection solution 2 is added (detection solution 2: 50 μl anti-cAMP-Eu[K]-AB; 950 μl reconstituted buffer; 2200 μl PBS; anti-cAMP-Eu[K]-AB: prepared according to the instructions in Cis bio Kit: #62AMPPEC; storage: in aliquots at −80° C.).
After further incubation for 90 min at room temperature, the HTRF result is measured either on the Packard Discovery or with the RubiStar HTRF measuring instrument (delay: 50 μs; integration time: 400 μs).

For data set [2] the following is noted: known from the literature; cited from earlier work.

As usually defined, the IC50 is the concentration that gives 50% inhibition.

soluble, sperm-specific adenylate cyclase (sAC), sequence (Q96PN6 whole entry): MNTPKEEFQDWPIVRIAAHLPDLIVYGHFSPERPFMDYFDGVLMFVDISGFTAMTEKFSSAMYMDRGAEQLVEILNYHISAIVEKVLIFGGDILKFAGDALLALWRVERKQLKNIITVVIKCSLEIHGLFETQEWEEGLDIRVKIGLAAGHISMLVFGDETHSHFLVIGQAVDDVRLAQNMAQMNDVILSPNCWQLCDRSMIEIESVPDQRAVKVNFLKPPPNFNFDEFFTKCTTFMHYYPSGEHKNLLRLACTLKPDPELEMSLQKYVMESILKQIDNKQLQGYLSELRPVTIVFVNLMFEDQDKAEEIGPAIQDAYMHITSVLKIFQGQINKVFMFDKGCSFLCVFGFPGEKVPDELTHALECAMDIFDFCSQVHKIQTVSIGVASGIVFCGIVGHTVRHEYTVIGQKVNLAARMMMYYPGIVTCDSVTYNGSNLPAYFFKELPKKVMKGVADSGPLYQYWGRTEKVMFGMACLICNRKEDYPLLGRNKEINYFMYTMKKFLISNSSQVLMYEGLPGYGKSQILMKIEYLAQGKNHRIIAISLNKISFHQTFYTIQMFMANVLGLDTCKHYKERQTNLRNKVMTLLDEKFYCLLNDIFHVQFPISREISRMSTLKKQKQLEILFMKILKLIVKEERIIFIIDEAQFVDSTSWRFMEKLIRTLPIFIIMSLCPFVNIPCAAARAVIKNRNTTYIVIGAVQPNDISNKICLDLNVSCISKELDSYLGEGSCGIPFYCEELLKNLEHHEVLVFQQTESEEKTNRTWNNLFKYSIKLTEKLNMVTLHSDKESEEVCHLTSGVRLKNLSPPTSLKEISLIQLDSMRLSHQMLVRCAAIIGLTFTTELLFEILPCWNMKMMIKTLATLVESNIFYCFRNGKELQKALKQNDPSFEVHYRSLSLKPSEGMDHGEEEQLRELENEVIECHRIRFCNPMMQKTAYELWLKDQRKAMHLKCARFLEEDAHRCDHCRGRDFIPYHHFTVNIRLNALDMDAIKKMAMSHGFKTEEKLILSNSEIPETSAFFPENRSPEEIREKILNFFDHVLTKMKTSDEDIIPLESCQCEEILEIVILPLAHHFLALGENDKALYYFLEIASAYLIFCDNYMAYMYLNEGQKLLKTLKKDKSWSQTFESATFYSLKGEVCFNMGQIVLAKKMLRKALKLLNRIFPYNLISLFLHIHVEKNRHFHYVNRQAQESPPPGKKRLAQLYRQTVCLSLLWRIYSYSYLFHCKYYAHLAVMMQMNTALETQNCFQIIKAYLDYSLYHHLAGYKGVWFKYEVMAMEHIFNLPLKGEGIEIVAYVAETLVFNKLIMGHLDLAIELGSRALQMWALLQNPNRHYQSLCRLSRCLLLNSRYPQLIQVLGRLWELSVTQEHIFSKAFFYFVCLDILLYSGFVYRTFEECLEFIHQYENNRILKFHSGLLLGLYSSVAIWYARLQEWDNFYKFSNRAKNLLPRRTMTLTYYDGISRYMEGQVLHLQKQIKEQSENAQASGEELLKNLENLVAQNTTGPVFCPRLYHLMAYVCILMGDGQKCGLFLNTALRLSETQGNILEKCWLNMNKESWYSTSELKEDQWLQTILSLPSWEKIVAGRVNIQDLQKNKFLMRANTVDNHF

For the molecule `CC(CO)NC(=O)c1[nH]c2ncc(NS(=O)(=O)c3ccc(C(C)(C)C)cc3)cc2c1-c1ccccc1` (racemic) [Example 6, (±)-N-(2-Hydroxy-1-methylethyl)-5-(4-tert-butylphenylsulfonyl-amino)-3-phenyl-1H-pyrrolo[2,3-b]pyridine-2-carboxamide], the IC50 in data set [1] was 37 nM.

On to `CC(C)(C)c1ccc(S(=O)(=O)Nc2cnc3[nH]c(C(=O)N[C@H]4CCC[C@H]4O)c(-c4ccccc4)c3c2)cc1` [Example 8, (1S,2R)—N-(2-Hydroxycyclopentyl)-5-(4-tert-butylphenylsulfonyl-amino)-3-phenyl-1H-pyrrolo[2,3-b]pyridine-2-carboxamide], for which the IC50 in data set [1] was determined as 13 nM. For the molecule `O=C(N[C@H]1CCC[C@H]1O)c1[nH]c2ncc(NS(=O)(=O)c3ccc(C(F)(F)F)cc3)cc2c1-c1ccccc1` [Example 22, (1S,2R)—N-(2-Hydroxycyclopentyl)-3-phenyl-5-(4-trifluoromethyl-phenylsulfonylamino)-1H-pyrrolo[2,3-b]pyridine-2-carboxamide], the IC50 in data set [1] worked out at 25 nM. With `Cc1cc2c(C(C)C)c(O)c(O)c(C=O)c2c(O)c1-c1c(C)cc2c(C(C)C)c(O)c(O)c(C=O)c2c1O` [gossypol], the toxicity result in data set [2] is reported as “inherently toxic”. `CC(C)(C)c1ccc(S(=O)(=O)Nc2cnc3[nH]c(C(=O)NCC4CCCO4)c(-c4ccccc4)c3c2)cc1` (racemic) [Example 10, (±)-N-(Tetrahydrofuran-2-ylmethyl)-5-(4-tert-butylphenylsulfonyl-amino)-3-phenyl-1H-pyrrolo[2,3-b]pyridine-2-carboxamide]: in data set [1], the IC50 worked out at 64 nM.
